Assay results reported in patent US20020128231A1 (priority 2000, published 2002).

Tests used:
P-glycoprotein = P-glycoprotein (Homo sapiens, UniProt P08183); assay: Rhodamine 123 transport assay across HCT-8 cell monolayers; settings: compound 10 μM, Rh123 15 μM, HCT-8 cells; for inhibition at 10 μM: human, HCT-8 cell monolayers in Transwell dishes, probe Rhodamine 123 (15 μM), % Inhibition of R123 Transport
Experimental: The human ileocecal adenocarcinoma cell line HCT-8 was grown in RPMI-1640 medium supplemented with 10% horse serum, 1 mM sodium pyruvate and 0.01 mg/ml gentamicin. All cells were maintained in a humidified atmosphere with 5% CO2 at 37° C.
Rhodamine 123 transport was examined as previously described (Hunter J. et al., Simmons, Br. J. Cancer, 64: 437444 (1991); Kim A. E. et al., J. Pharm. Exp. Ther., 286: 1439-1445 (1998)) using HCT-8 cells. Particularly, cells were grown in 6 well Corning Transwell dishes until a tight monolayer was formed. Rh123 was added at a final concentration of 15 μM to the basal or apical compartments and 200 μl samples were taken at the indicated times from the opposite chamber. Fluorescence of Rh123 in the media samples was measured using a fluorescence plate reader with an excitation wavelength of 485 nm and an emission wavelength of 530 nm.

[1] = tested on: MDR1-expressing NIH 3T3 cells; assay: Cytotoxicity (MTT) assay: modulation of drug cytotoxicity in multidrug resistant cells; settings: compound 5 μM; 50 nM doxorubicin; 72 hours; MTT
Experimental: Cytotoxicity assays were performed with many of the compounds of Formula I to verify their usefulness as inhibitors of P-gp.
Parental NIH3T3 Swiss mouse embryo cell line was obtained from American Type Culture Collection and was grown in Dulbecco's Modified Eagles Medium supplemented with 4.5 g/L glucose, 10% fetal bovine serum, 2 mM L-glutamine, and 0.01 mg/ml gentamicin. […] All cells were maintained in a humidified atmosphere with 5% CO2 at 37° C.
Parental and MDR1-expressing NIH 3T3 cells were plated at a density of 2.5-3.0×10^3 cells/well in 96-well microtiter plates and were exposed to 50 nM of doxoriubicin, 7.5 nM vinblastine, 75 nM colchicine or 300 nM paclitaxel for 72 hours. Cell viability was determined with the colorimetric MTT (3-(4,5-dimethylthiazol-2-yl)-2,5-diphenyl tetrazolium) assay as previously described (Mosmann T., J. Immunol. Methods, 65: 55-63 (1983); Hansen M. B. et al., J. Immunol. Methods, 119: 203-210 (1989)) and the absorbance was measured at 570 nm.

P-glycoprotein, sequence (P08183 whole entry): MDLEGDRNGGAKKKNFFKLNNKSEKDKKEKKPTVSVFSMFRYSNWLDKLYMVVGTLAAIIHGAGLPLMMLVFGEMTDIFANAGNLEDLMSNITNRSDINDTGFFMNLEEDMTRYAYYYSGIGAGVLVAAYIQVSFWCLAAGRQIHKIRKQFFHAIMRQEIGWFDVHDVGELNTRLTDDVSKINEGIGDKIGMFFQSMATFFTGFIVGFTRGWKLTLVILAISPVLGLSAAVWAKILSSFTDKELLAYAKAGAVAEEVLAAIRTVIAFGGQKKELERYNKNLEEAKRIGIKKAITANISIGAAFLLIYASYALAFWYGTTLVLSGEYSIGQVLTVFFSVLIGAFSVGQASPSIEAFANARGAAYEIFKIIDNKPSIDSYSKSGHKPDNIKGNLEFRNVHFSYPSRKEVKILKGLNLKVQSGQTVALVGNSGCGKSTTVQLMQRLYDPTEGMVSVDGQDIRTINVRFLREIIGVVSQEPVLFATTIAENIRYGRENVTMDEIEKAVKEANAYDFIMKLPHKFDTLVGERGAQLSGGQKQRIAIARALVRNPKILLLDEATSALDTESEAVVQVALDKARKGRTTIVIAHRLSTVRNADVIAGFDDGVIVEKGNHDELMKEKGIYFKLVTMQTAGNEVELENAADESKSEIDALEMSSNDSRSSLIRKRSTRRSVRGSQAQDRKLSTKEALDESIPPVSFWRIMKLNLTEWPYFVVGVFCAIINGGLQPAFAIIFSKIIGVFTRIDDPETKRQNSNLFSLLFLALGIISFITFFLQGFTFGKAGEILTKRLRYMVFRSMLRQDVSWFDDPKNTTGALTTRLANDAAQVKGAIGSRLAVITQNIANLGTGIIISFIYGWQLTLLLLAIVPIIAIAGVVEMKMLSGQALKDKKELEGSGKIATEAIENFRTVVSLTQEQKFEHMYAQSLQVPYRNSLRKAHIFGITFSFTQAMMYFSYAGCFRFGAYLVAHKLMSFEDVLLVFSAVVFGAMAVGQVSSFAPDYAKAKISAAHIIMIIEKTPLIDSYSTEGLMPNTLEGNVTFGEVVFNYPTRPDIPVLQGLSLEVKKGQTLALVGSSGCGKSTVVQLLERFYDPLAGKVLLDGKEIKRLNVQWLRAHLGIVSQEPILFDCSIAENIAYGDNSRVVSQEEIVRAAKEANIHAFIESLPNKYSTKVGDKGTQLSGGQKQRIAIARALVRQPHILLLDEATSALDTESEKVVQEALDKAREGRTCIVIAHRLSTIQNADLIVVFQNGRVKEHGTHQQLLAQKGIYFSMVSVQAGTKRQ

Compound	% Inhibition of R123 Transport (P-glycoprotein)	inhibition at 10 μM (P-glycoprotein)	Modulation of Drug Resistance (percentage increase in doxorubicin cytotoxicity in the presence of the compounds versus in their absence) [1]
COc1ccc(C2c3cc(OC)c(OC)cc3C(CCNC(=O)c3ccc(C(C)(C)C)cc3)C2CNC(=O)c2ccc(C(C)(C)C)cc2)cc1OC (stereo not drawn) [AV-259]	84.87%	–	3.9%
COc1ccc(C2c3cc(OC)c(OC)cc3C(CCNC(=O)c3ccccc3)C2CNC(=O)c2ccccc2)cc1OC (stereo not drawn) [AV-264]	83.51%	–	6.3%
CCOc1ccccc1N1CCN(CCC2c3cc(OC)c(OC)cc3C(c3ccc(OC)c(OC)c3)C2CN2CCN(c3ccccc3OCC)CC2)CC1 (stereo not drawn) [AV-184, 2-{3-(3,4-dimethoxyphenyl)-5,6-dimethoxy-2-[4-(2-ethoxyphenyl)-piperazin-1-yl-methyl]-indan-1-yl}-1-[4-(2-ethoxyphenyl)-piperazin-1-yl]-ethane]	–	53.7%	50.58%
COc1cc(C2c3cc(O)c(OC)cc3C(CC(=O)N3CCC(Cc4ccccc4)CC3)C2C(=O)N2CCC(Cc3ccccc3)CC2)ccc1O (single isomer, unassigned) [AV-251-2]	75.44%	–	2.4%
COc1ccc(C2c3cc(OC)c(OC)cc3C(CC(=O)N3CCN(Cc4ccccc4)CC3)C2C(=O)N2CCN(Cc3ccccc3)CC2)cc1OC (stereo not drawn) [AV-164, 2-[2-(4-benzylpiperazine-1-carbonyl)-3-(3,4-dimethoxyphenyl)-5,6-dimethoxy-indan-1-yl]-1-(4-benzylpiperazine-1-yl)-ethanone]	–	85.1%	70.03%
CCCOc1ccc(C2c3cc(OCCC)c(OCCC)cc3C(CC(=O)N3CCN(c4ccccc4OCC)CC3)C2C(=O)N2CCN(c3ccccc3OCC)CC2)cc1OCCC (stereo not drawn) [AV-254, 2-{3-(3,4-Dipopoxy-phenyl)-2-[4-(2-ethoxy-phenyl)-piperazine-1-carbonyl]-5,6-dipropoxy-indan-1-yl}-1-[4-(2-ethoxy-phenyl)-piperazin-1-yl]-ethanone]	18.70%	–	4.1%
COc1ccc(C2c3cc(OC)c(OC)cc3C(CC(=O)N3CCN(CC=Cc4ccccc4)CC3)C2C(=O)N2CCN(CC=Cc3ccccc3)CC2)cc1OC (stereo not drawn) [AV-172, 2-{3-(3,4-dimethoxyphenyl)-5,6-dimethoxy-2-[4-(3-phenylallyl)-piperazine-1-carbonyl]-indan-1-yl}-1-[4-(3-phenylallyl)piperazine-1-yl]-ethanone]	–	86.7%	68.57%
COc1ccc(C2c3cc(OC)c(OC)cc3C(CCNS(=O)(=O)c3ccccc3)C2CNS(=O)(=O)c2ccccc2)cc1OC (stereo not drawn) [AV-223, N-{2-[(2-N-methyl)-benzenesulfonamide-3-(3,4-dimethoxyphenyl)-5,6-dimethoxy-indan-1-yl}-ethyl}-benzensulfonamide]	74.50%	–	36.55%
CCOc1ccccc1N1CCN(C(=O)CC2c3cc4c(cc3C(c3ccc5c(c3)OCO5)C2C(=O)N2CCN(c3ccccc3OCC)CC2)OCO4)CC1 (single isomer, unassigned) [AV-258-2, 2-{7-benzo[1,3]dioxol-5-yl-6-[4-(2-ethoxy-phenyl)-piperazin-1-carbonyl]-6,7-dihydro-5H-indeno[5,6-d][1,3]dioxol-5-yl}-1-[4-(2-ethoxy-phenyl)-piperazin-1-yl]-ethanone]	67.09%	–	19.2%
COc1ccc(C2c3cc(OC)c(OC)cc3C(CC(=O)N(CC(C)C)CC(C)C)C2C(=O)N(CC(C)C)CC(C)C)cc1OC (stereo not drawn) [AV-191, 1-[(diisobutylcarbamoyl)methyl]-3-(3,4-dimethoxyphenyl)-5,6-dimethoxy-indan-2-carboxylic acid diisobutylamide]	–	64.9%	63.49%
COc1ccc(C2c3cc(OC)c(OC)cc3C(CCNC(=O)c3ccccc3OC)C2CNC(=O)c2ccccc2OC)cc1OC (stereo not drawn) [AV-265]	93.0%	–	−0.2%
COc1ccc(C2c3cc(OC)c(OC)cc3C(CCNC(=O)c3ccc(Br)cc3)C2CNC(=O)c2ccc(Br)cc2)cc1OC (stereo not drawn) [AV-263]	80.78%	–	12.2%
COCC1C(CCN2CCN(Cc3ccccc3)CC2)c2cc(OC)c(OC)cc2C1c1ccc(OC)c(OC)c1 (stereo not drawn) [AV-178, 1-benzyl-4-{2-[3-(3,4-dimethoxyphenyl)-5,6-dimethoxy-2-methoxymethyl-indan-1-yl]-ethyl}-piperazine]	–	79%	54.50%

Continued, in another order:

% Inhibition of R123 Transport (P-glycoprotein)	inhibition at 10 μM (P-glycoprotein)	Compound	Modulation of Drug Resistance (percentage increase in doxorubicin cytotoxicity in the presence of the compounds versus in their absence) [1]
–	77.1%	COc1ccc(C2c3cc(OC)c(OC)cc3C(CC(=O)N3CCN(c4ccc(F)cc4)CC3)C2C(=O)N2CCN(c3ccc(F)cc3)CC2)cc1OC (stereo not drawn) [AV-169, 2-{2-[4-(4-fluorophenyl)-piperazin-1-carbonyl]-3-(3,4-dimethoxyphenyl)-5,6-dimethoxy-indan-1-yl}-1-[4-(4-fluorophenyl)piperazine-1-yl]-ethanone]	71.29%
77.9%	–	COCC1C(CCN2CCN(c3ccc(C(C)=O)cc3)CC2)c2cc(OC)c(OC)cc2C1c1ccc(OC)c(OC)c1 (stereo not drawn) [AV-203]	84.65%
–	47.3%	CCCCCCCCCCOc1ccc(C2c3cc(OCCCCCCCCCC)c(OC)cc3C(CC(=O)N3CCN(c4ccccc4OCC)CC3)C2C(=O)N2CCN(c3ccccc3OCC)CC2)cc1OC (stereo not drawn) [AV-209, 2-{5-decyloxy-3-(4-decyloxy-3-methoxyphenyl)-2-[4-(2-ethoxyphenyl)-piperazine-1-carbonyl]-6-methoxy-indan-1-yl}-1-[4-(2-ethoxyphenyl)-piperazin-1-yl]-ethanone]	1.16%
–	66.3%	COc1ccc(C2c3cc(OC)c(OC)cc3C(CC(=O)N3CCN(c4ccc(Cl)cc4)CC3)C2C(=O)N2CCN(c3ccc(Cl)cc3)CC2)cc1OC (stereo not drawn) [AV-167, 2-[2-[4-(4-chlorophenyl)-piperazin-1 carbonyl]-3-(3,4-dimethoxyphenyl)-5,6-dimethoxy-indan-1-yl]-1-[4-(4-chlorophenyl)piperazine-1-yl]-ethanone]	68.21%
–	83.8%	COCC1C(CCN2CCN(c3ccc(F)cc3)CC2)c2cc(OC)c(OC)cc2C1c1ccc(OC)c(OC)c1 (stereo not drawn) [AV-201, 1-{-2-[3-(3,4-dimethoxyphenyl)-5,6-dimethoxy-2-methoxymethyl-indan-1-yl]-ethyl}-4-(4-fluorophenyl)-piperazine]	66.44%
–	65.8%	COc1ccc(C2c3cc(OC)c(OC)cc3C(CCN3CCN(c4ccc(Cl)cc4)CC3)C2CN2CCN(c3ccc(Cl)cc3)CC2)cc1OC (stereo not drawn) [AV-186, 2-{3-(3,4-dimethoxyphenyl)-5,6-dimethoxy-2-[4-(4-chlorophenyl)-piperazin-1-yl-methyl]-indan-1-yl}-1-[4-(4-chlorophenyl)-piperazin-1-yl]-ethane]	64.87%
37.58%	–	COc1ccc(C2c3cc(OC)c(OC)cc3C(CCNC(=O)NCc3ccccc3)C2CNC(=O)NCc2ccccc2)cc1OC (stereo not drawn) [AV-234, 10-benzyl-3-{2-[2-(3-benzyl-ureidomethyl)-3-(3,4-dimethoxyphenyl)-5,6-dimethoxy-indan-1-yl]-ethyl}-urea]	12.50%
–	69.9%	CCOc1ccccc1N1CCN(C(=O)CC2c3cc4c(cc3C(c3ccc5c(c3)OCO5)C2C(=O)N2CCN(c3ccccc3OCC)CC2)OCO4)CC1 (single isomer, unassigned) [AV-258-1, 2-{7-benzo[1,3]dioxol-5-yl-6-[4-(2-ethoxy-phenyl)-piperazin-1-carbonyl]-6,7-dihydro-5H-indeno[5,6-d][1,3]dioxol-5-yl}-1-[4-(2-ethoxy-phenyl)-piperazin-1-yl]-ethanone]	7.9%
–	80.4%	CCOc1ccccc1N1CCN(C(=O)CC2c3cc(OC)c(OC)cc3C(c3ccc(OC)c(OC)c3)C2C(=O)N(C)C)CC1 (stereo not drawn) [AV-257, 1-(3,4-Dimethoxy-phenyl)-3-{2-[4-(2-ethoxy-phenyl)-piperazin-1-yl]-2-oxo-ethyl}-5,6-dimethoxy-indan-2-carboxylic acid dimethylamide]	8.7%
–	89.7%	CCOc1ccc(C2c3cc(OCC)c(OC)cc3C(CC(=O)N3CCN(c4ccccc4OCC)CC3)C2C(=O)N2CCN(c3ccccc3OCC)CC2)cc1OC (stereo not drawn) [AV-207, 2-{5-ethoxy-3-(4-ethoxy-3-methoxyphenyl)-2-[4-(2-ethoxyphenyl)-piperazine-1-carbonyl]-6-methoxy-indan-1-yl}-1-[4-(2-ethoxyphenyl)-piperazin-1-yl]-ethanone]	55.08%
–	2.7%	CCN1CCN(C(=O)CC2c3cc(OC)c(OC)cc3C(c3ccc(OC)c(OC)c3)C2C(=O)N2CCN(CC)CC2)CC1 (stereo not drawn) [AV-187, 2-[3-(3,4-dimethoxyphenyl)-5,6-dimethoxy-2-(4-ethylpiperazine-1-carbonyl)-indan-1-yl]-1-(4-ethylpiperazin-1-yl)-ethanone]	23.50%
